From patent publication US20160089371A1, “Combination of Kinase Inhibitors and Uses Thereof” (INTELLIKINE, LLC, priority 2013, published 2016)
Read-outs that look alike come from different tables or passages of the source.

What was measured:
PI3K γ = PI3K γ (Homo sapiens, UniProt P48736); test: PI 3-Kinase (human) HTRF assay, p110γ
Experimental: (§1) Briefly, the assay is a time resolved FRET assay that indirectly measures PIP3 product formed by the activity of a PI3-K. The kinase reaction is performed in a microtiter plate (e.g., a 384 well microtiter plate). The total reaction volume is approximately 20 ul per well. In the first step, each well receives 2 ul of test compound in 20% dimethylsulphoxide resulting in a 2% DMSO final concentration. […] The plate is sealed and incubated for 15 minutes at room temperature. […] The plate is sealed and incubated for 1 hour at room temperature. The reaction is stopped by adding 5 ul of Stop Solution per well and then 5 ul of Detection Mix is added per well. The plate is sealed, incubated for 1 hour at room temperature, and then read on an appropriate plate reader. Data is analyzed and IC50s are generated using GraphPad Prism 5.

PI3K δ = PI3K δ (Homo sapiens, UniProt O00329); test: PI 3-Kinase (human) HTRF assay, p110δ/p85α
Experimental: as §1

PI3K β = PI3K β (Homo sapiens, UniProt P42338); test: PI 3-Kinase (human) HTRF assay, p110β/p85α
Experimental: (§2) An exemplary system is PI 3-Kinase (human) HTRF™ Assay from Upstate. […] Briefly, the assay is a time resolved FRET assay that indirectly measures PIP3 product formed by the activity of a PI3-K. The kinase reaction is performed in a microtiter plate (e.g., a 384 well microtiter plate). The total reaction volume is approximately 20 ul per well. In the first step, each well receives 2 ul of test compound in 20% dimethylsulphoxide resulting in a 2% DMSO final concentration. […] The plate is sealed and incubated for 15 minutes at room temperature. […] The plate is sealed and incubated for 1 hour at room temperature. The reaction is stopped by adding 5 ul of Stop Solution per well and then 5 ul of Detection Mix is added per well. The plate is sealed, incubated for 1 hour at room temperature, and then read on an appropriate plate reader. Data is analyzed and IC50s are generated using GraphPad Prism 5.

PI3K α = PI3K α (Homo sapiens, UniProt P42336); test: PI 3-Kinase (human) HTRF assay, p110α/p85α
Experimental: as §2

PC3 = PC3 proliferation; assay type: cell-based; conditions: Homo sapiens, PC-3; PC3 cell line (compounds before 438)
T47D = T47D proliferation; assay type: cell-based; conditions: Homo sapiens; T47D cell line
mTOR = target: T1, mTOR (Homo sapiens, UniProt P42345); test: Inhibition assay of mTOR (radiometric or LanthaScreen TR-FRET); assay type: biochemical; conditions: read-out: mTORC IC50
T1 construct: purchased Invitrogen
Experimental: The compounds described herein can be tested against recombinant mTOR (Invitrogen) in an assay containing 50 mM HEPES, pH 7.5, 1 mM EGTA, 10 mM MgCl2, 2.5 mM, 0.01% Tween, 10 μM ATP (2.5 μCi of μ-32P-ATP), and 3 μg/mL BSA. Rat recombinant PHAS-1/4EBP1 (Calbiochem; 2 mg/mL) is used as a substrate. Reactions are terminated by spotting onto nitrocellulose, which is washed with 1M NaCl/1% phosphoric acid (approximately 6 times, 5-10 minutes each). Sheets are dried and the transferred radioactivity quantitated by phosphorimaging.
For instance, one can use Invitrogen's LanthaScreen™ Kinase assay to test the inhibitors of mTOR disclosed herein. This assay is a time resolved FRET platform that measures the phosphorylation of GFP labeled 4EBP1 by mTOR kinase. The kinase reaction is performed in a white 384 well microtiter plate. The total reaction volume is 20 ul per well and the reaction buffer composition is 50 mM HEPES pH7.5, 0.01% Polysorbate 20, 1 mM EGTA, 10 mM MnCl2, and 2 mM DTT. In the first step, each well receives 2 ul of test compound in 20% dimethylsulphoxide resulting in a 2% DMSO final concentration. […] The plate is sealed and incubated for 1 hour at room temperature. […] The plate is sealed, incubated for 1 hour at room temperature, and then read on a plate reader set up for LanthaScreen™ TR-FRET. Data is analyzed and IC50s are generated using GraphPad Prism 5.

MDA-MB-361 = MDA-MB-361 proliferation; assay type: cell-based; conditions: Homo sapiens
[1] = test system: anti-TNP antibody production (B cell function); test: TNP-Ficoll T-cell independent B-cell activation assay; assay type: in vivo, mice; conditions: 70 mg/kg GDC0941; 30, 60 or 120 mg/kg Compound A; 7 days
Experimental: To test the effects of the compounds of the present invention in suppressing T cell independent antibody production, the TNP-Ficoll B-cell activation assay is used as described herein. Compounds of the present invention are dissolved in an appropriate vehicle (e.g. 5% 1-methyl-2-pyrrolidinone, 85% polyethylene glycol 400, 10% Solutor). Compounds are administered orally approximately lhr before TNP-Ficoll treatment to 4-10 week old mice. To study the effects of the compounds on B-cell activation, one set of mice are grouped according to the following table:
Four animals in group 1, and eight animals in groups 2 to 7 are euthanized in CO2 2 hours after the last compound administration on day 7. […]
Serum samples are analyzed for anti-TNP antibody titers by ELISA as described herein. […] HRP substrate (200 μl ABTS solution+30% H2O2+10 ml citrate buffer) is added to each well at 100 μl/well, incubated 2-20 minutes in the dark and the amount of anti-TNP IgG3 is determined spectrophotometrically at 405 nm. Similarly, anti-TNP IgM and total anti-TNP Ab are determined using anti-mouse IgM-HRP and anti-mouse Ig-HRP respectively.
Antibody production was measured using ELISA and plotted as a percentage of control group that were treated with vehicle.

[2] = test system: MDA-MB-361 (PI3Kα/HER2 carcinoma) tumors; test: In vivo efficacy in xenogenic mouse model of breast cancer; set-up: species or system nude mice; conditions: 70 mg/kg Pan-PI3K inhibitor; 60 mg/kg compound A
Experimental: Blood glucose was monitored periodically following administration of treatment.
Treatment of tumors (MDA-MB-361) with compounds was discontinued on Day 30. Tumors were measured every 2-5 days.

marginal zone B cells = test: Marginal zone B cells in mouse spleen (FACS); conditions: 70 mg/kg Pan-PI3K inhibitor; 60 mg/kg Compound A; spleens 2 hrs after last dose
Experimental: The effect of the compounds on the localization/viability of marginal zone B cells in the spleen is also evaluated at the conclusion of treatment.
Spleens were harvested 2 hrs after the last dose, processed and stained with appropriate antibodies (marginal zone B cell: B220+; CD23−; CD21hi) and analyzed for staining on GUAVA EasyCyte FACS machine using Guava Cytosoft 5.2 software.

B cell function = B cell function in vivo, antibody production after TNP-Ficoll immunization; conditions: mice immunized with TNP-Ficoll; 70 mg/kg GDC0941; 30, 60 or 120 mg/kg Compound A; 7 days; FIG. 8
Experimental: Mice were immunized with TNP-Ficoll and treated with 1) vehicle; 2) 70 mg/kg GDC0941; 3) 30 mg/kg Compound A; 4) 60 mg/kg Compound A; or 5) 120 mg/kg Compound A for 7 days. Antibody production was measured as a percentage of control group that were treated with vehicle.

Chain of PI3K β (P42338 whole entry): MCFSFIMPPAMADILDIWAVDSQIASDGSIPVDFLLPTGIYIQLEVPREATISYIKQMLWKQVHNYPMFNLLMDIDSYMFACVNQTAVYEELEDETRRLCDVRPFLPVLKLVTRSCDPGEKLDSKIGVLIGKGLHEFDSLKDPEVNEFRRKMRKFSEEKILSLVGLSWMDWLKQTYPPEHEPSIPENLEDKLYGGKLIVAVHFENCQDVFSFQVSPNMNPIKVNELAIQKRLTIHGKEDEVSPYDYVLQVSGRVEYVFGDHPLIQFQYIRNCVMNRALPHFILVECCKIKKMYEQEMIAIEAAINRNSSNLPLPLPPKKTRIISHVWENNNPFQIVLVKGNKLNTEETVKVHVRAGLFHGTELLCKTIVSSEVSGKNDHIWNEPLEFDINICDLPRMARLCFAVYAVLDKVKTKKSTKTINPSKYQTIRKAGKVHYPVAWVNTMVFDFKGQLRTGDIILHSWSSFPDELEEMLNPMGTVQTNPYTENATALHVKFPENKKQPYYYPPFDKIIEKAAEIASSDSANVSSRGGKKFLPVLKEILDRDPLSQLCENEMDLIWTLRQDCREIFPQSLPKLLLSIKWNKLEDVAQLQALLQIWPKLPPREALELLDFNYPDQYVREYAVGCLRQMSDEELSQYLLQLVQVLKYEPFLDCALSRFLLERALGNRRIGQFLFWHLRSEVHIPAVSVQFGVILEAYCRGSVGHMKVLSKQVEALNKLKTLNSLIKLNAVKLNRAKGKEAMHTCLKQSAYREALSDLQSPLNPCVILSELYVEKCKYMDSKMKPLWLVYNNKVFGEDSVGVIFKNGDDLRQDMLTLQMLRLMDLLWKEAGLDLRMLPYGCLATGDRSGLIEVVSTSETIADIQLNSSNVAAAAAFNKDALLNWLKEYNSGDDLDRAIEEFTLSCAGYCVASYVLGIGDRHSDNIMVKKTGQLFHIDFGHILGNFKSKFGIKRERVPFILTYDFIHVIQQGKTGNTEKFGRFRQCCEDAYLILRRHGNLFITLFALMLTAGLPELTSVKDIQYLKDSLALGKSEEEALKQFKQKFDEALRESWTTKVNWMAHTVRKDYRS
Chain of PI3K β (P27986 whole entry partner): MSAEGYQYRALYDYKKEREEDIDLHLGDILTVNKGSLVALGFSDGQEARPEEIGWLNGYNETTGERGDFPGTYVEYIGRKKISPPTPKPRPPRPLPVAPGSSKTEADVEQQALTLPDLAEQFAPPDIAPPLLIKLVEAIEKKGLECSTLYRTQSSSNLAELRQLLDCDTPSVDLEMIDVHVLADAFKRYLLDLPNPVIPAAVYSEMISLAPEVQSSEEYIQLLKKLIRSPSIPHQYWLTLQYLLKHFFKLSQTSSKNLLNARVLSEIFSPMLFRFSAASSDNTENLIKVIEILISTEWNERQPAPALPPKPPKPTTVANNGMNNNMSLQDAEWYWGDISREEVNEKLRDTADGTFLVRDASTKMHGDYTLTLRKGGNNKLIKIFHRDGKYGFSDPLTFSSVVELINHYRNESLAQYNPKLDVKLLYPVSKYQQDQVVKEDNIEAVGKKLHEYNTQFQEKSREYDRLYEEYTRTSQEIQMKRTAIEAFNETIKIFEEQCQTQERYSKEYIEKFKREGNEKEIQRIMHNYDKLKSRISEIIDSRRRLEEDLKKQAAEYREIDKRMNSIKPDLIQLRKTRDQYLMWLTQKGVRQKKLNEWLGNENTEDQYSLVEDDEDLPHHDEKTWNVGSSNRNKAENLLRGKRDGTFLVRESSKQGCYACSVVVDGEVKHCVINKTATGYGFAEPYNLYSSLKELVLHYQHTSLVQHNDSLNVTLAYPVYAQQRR
Chain of PI3K α (P42336 whole entry): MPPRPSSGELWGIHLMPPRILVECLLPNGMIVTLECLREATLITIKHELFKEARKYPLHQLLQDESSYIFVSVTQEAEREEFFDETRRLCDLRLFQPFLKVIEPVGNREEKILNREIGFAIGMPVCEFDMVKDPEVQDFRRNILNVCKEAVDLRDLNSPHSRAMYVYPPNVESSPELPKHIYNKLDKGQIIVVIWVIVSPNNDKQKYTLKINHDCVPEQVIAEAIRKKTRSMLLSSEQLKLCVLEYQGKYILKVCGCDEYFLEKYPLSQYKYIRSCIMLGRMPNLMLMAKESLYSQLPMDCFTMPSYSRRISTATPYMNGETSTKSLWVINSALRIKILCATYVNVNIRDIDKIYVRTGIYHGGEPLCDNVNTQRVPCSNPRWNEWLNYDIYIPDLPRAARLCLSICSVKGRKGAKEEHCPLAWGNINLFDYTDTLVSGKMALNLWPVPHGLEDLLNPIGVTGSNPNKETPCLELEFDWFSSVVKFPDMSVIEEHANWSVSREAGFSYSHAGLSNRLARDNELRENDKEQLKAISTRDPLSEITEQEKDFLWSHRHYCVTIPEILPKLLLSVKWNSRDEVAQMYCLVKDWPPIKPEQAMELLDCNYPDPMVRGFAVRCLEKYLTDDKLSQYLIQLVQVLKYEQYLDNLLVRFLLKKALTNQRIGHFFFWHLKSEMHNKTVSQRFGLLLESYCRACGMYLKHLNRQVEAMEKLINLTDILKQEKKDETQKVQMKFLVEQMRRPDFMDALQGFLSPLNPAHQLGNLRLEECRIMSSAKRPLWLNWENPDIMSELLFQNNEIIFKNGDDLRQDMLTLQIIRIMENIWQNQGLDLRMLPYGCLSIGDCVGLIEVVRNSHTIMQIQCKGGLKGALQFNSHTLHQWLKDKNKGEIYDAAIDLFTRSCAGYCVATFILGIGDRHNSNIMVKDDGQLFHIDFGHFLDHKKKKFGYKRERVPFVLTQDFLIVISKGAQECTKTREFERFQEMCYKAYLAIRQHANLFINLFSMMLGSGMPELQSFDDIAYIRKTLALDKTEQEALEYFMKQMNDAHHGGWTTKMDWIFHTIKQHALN
Chain of PI3K α (P27986 whole entry partner): as the sequence (P27986 whole entry partner) above
Chain of PI3K δ (O00329 whole entry): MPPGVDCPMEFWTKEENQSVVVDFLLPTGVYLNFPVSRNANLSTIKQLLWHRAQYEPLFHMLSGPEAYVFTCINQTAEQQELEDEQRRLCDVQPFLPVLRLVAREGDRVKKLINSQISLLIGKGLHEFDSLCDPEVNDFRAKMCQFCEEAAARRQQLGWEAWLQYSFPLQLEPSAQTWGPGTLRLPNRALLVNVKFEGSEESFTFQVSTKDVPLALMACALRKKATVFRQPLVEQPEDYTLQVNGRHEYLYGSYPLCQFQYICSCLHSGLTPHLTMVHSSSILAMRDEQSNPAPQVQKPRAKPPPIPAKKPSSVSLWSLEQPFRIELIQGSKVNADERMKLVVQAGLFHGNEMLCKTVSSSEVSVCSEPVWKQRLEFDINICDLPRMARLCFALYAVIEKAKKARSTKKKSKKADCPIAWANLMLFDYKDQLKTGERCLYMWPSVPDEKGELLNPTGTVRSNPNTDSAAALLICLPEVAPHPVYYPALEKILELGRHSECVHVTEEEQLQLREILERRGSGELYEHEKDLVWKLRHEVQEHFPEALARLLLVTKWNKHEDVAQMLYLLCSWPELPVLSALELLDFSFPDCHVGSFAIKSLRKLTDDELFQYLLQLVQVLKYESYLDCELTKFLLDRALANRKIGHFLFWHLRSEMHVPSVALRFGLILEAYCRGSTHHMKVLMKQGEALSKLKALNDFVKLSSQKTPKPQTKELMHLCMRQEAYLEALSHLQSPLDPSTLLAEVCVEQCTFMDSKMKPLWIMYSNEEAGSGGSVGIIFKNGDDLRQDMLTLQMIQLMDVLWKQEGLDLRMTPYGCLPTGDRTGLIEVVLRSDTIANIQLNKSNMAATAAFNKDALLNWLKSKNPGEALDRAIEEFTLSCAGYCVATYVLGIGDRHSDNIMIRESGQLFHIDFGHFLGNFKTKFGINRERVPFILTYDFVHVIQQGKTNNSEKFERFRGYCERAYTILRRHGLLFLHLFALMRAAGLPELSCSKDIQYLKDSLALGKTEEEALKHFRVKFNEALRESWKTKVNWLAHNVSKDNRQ
Chain of PI3K δ (P27986 whole entry partner): as the sequence (P27986 whole entry partner) above
Chain of PI3K γ (P48736 whole entry): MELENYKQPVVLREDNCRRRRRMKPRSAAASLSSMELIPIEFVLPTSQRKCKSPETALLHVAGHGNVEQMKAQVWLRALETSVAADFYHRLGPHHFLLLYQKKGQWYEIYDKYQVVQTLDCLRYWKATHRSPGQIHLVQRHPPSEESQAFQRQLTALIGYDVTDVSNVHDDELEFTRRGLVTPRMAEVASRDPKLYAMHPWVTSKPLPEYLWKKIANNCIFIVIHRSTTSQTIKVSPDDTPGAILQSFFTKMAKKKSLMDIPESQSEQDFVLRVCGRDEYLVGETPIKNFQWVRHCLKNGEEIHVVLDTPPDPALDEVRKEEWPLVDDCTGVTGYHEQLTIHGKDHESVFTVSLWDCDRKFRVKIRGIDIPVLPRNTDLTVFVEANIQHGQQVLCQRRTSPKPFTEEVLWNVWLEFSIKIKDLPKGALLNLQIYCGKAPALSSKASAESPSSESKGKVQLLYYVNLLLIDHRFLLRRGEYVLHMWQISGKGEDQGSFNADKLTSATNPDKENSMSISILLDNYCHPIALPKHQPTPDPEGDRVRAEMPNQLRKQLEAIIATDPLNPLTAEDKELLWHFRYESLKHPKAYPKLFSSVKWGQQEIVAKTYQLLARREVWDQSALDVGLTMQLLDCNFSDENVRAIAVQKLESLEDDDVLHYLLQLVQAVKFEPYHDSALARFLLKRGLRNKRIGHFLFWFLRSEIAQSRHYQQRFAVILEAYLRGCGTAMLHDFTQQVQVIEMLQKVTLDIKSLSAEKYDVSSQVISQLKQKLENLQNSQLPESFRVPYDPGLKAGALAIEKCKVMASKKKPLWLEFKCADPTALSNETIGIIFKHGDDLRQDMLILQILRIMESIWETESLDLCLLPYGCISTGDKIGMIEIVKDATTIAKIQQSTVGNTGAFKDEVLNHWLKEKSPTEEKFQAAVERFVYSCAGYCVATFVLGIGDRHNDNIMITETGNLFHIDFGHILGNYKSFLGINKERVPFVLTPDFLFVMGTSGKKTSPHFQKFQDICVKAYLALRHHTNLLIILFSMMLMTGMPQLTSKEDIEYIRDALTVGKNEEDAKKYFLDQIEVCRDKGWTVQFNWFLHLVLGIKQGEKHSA

Row | Compound | IC50 (PI3K γ) | IC50 (PI3K δ) | IC50 (PI3K β) | also measured
1 | CN1CCN(CCNC(=O)c2cnc3ccc(-c4ccc5oc(N)nc5c4)cn23)CC1 [Compound 306] | < 1 µM | – | – | –
2 | Nc1nc2cc(-c3ccc4ncc(C(=O)N5CC[C@H](n6cccn6)C5)n4c3)ccc2o1 [Compound 478] | – | – | – | PI3K δ IC50 (nM) (PI3K δ): +++ +++
3 | [2H]c1c(-c2ccc3ncc(C(=O)N4CCOCC4)n3c2)c([2H])c2nc(N)oc2c1[2H] [Compound 531] | < 0.1 µM | – | – | –
4 | CN1CCN(c2cnc3ccc(-c4ccc5nc(N)oc5c4)cn23)CC1 [Compound 542] | > 10 µM | > 10 µM | > 10 µM | IC50 (PI3K α): > 10 µM
5 | CN1CCC(N(C)c2ncnc3ccc(-c4ccc5oc(N)nc5c4)cc23)CC1 [Compound 155] | < 1 µM | – | – | –
6 | Nc1nc2cc(-c3ccc4ncc(N[C@H]5CC[C@H](O)CC5)nc4c3)ccc2o1 [Compound 128] | < 0.1 µM | < 0.1 µM | < 10 µM | IC50 (PI3K α): < 0.1 µM
7 | Nc1nc2cc(-c3ccc4ncc(C(=O)N5CC[C@H](F)C5)n4c3)ccc2o1 [Compound 476] | < 1 µM | < 10 µM | – | –
8 | Nc1nc2cc(-c3ccc4nccc(-c5ccncc5)c4c3)ccc2o1 [Compound 1] | – | – | – | IC50 (PC3): < 1000 nM; IC50 (T47D): < 1 µM
9 | Nc1nc2cc(-c3ccc4ncc(N5CC(N6CCOCC6)C5)nc4n3)ccc2o1 [Compound 604] | < 1 µM | – | < 10 µM | IC50 (mTOR; Table 4, PI3K α inhibitors): > 10 µM
10 | C[C@H]1CN(c2cnc3ccc(-c4ccc5oc(N)nc5c4)cc3n2)CCN1C [Compound 332] | < 1 µM | – | – | –
11 | CC(C)[C@@H](N)C(=O)N1CCN(c2cnc3ccc(-c4ccc5oc(N)nc5c4)cc3n2)CC1 [Compound 270] | < 1 µM | – | – | –
12 | Nc1nc2cc(-c3ccc4ncc(N5CCNC(=O)C5)nc4c3)ccc2o1 [Compound 135] | – | < 10 µM | < 0.1 µM | –
13 | Nc1nc2cc(-c3ccc4ncc(C(=O)N5CC(N6CC[C@@H](O)C6)C5)n4c3)ccc2o1 [Compound 470] | < 0.1 µM | > 10 µM | > 10 µM | –
14 | CN1CCN([C@@H]2CCN(c3cnc4ccc(-c5ccc6oc(N)nc6c5)cc4n3)C2)CC1 [Compound 379] | – | – | – | IC50 (mTOR): > 10 µM
15 | Nc1nc2cc(-c3ccc4ncc(-c5cccnc5)nc4n3)ccc2o1 [Compound 567] | < 0.1 µM | < 10 µM | – | IC50 (MDA-MB-361; MDA-MB-361 cells, Table 4, read-out: MDA-MB-361 proliferation (nM)*): > 10000 nM; IC50 (PI3K α): < 0.1 µM
16 | Nc1nc2cc(-c3ccn4ncc(C(=O)N5CCOCC5)c4c3)cc(Cl)c2o1 [Compound 359] | < 0.1 µM | < 10 µM | < 1 µM | IC50 (PI3K α): < 0.1 µM
17 | CC1CN(C(=O)c2cnc3ccc(-c4ccc5oc(N)nc5c4)cn23)CCN1 (centres unmarked) [Compound 164] | – | – | – | IC50 (T47D): < 1 µM
18 | CN1CCC(NC(=O)c2cnc3ccc(-c4ccc5oc(N)nc5c4)cn23)CC1 [Compound 203] | < 0.1 µM | < 1 µM | < 0.1 µM | –
19 | O=C(c1cnc2ccc(-c3ccc(Cl)c(NS(=O)(=O)c4ccc(F)cc4F)c3)cn12)N1CCOCC1 [Compound 461] | < 1 µM | – | – | –
20 | Nc1nc2cc(-c3ccc4ncc(N5CC[C@H](N6CCOCC6)C5)nc4c3)ccc2o1 [Compound 375] | < 0.1 µM | < 10 µM | – | –
21 | O=C(c1cnc2ccc(-c3ccc4c(Nc5ccccc5)noc4c3)cn12)N1CCOCC1 [Compound 509] | < 10 µM | < 1 µM | < 10 µM | IC50 (MDA-MB-361; PC-3, read-out: PC3 proliferation (nM)*): < 10000 nM; IC50 (PI3K α): < 0.1 µM
22 | CC(C)[C@H](N)C(=O)N1CCN(c2cnc3ccc(-c4ccc5oc(N)nc5c4)cc3n2)CC1 [Compound 269] | < 10 µM | – | – | –
23 | Nc1nc2cc(-c3ccc4ncc(N5CCC(N)CC5)nc4c3)ccc2o1 [Compound 168] | < 10 µM | – | – | –
24 | CS(=O)(=O)N1CCN(Cc2cc3nc(-c4cccc5[nH]ncc45)nc(N4CCOCC4)c3s2)CC1 [Pan-PI3K inhibitor, GDC0941, reference compound] | – | – | – | B cell function in vivo, antibody production after TNP-Ficoll (FIG. 8) [1]: blocks B cell function in vivo; tumor weight in breast cancer model (FIG. 9 left panel) [2]: reduction in tumor weight; presence (localization/viability) of marginal zone B cells in mouse spleen (FIG. 9 right panel) (marginal zone B cells): reduced presence of MZB cells; B cell function in vivo (antibody production, percentage of vehicle control) (B cell function): blocks B cell function
